Each block holds one molecule with its values, some of them ahead of it.
Tests used:
[1] = biological target: Protein polybromo-1 (Homo sapiens) (UniProt Q86U86); test: Selectivity interaction (Human bromodomain panel (DSF assay)) EUB0000233b PBRM1
[2] = biological target: Proto-oncogene tyrosine-protein kinase Src (Homo sapiens, UniProt P12931); test: Selectivity interaction (Kinase panel (literature)) EUB0001199aCl SRC; conditions: at 1 µM
[3] = biological target: Platelet-derived growth factor receptor alpha (Homo sapiens, UniProt P16234); test: Selectivity interaction (Kinase panel (Invitrogen)) EUB0000639a PDGFRA; conditions: at 200 nM
[4] = biological target: Phosphatidylinositol 4-kinase beta (Homo sapiens, UniProt Q9UBF8); test: Selectivity interaction (KinomeScan (DiscoverX)) EUB0000595a PI4KB; conditions: at 10 µM
Phosphatidylinositol 4-kinase beta, sequence (Q9UBF8 2-816 limits assumed): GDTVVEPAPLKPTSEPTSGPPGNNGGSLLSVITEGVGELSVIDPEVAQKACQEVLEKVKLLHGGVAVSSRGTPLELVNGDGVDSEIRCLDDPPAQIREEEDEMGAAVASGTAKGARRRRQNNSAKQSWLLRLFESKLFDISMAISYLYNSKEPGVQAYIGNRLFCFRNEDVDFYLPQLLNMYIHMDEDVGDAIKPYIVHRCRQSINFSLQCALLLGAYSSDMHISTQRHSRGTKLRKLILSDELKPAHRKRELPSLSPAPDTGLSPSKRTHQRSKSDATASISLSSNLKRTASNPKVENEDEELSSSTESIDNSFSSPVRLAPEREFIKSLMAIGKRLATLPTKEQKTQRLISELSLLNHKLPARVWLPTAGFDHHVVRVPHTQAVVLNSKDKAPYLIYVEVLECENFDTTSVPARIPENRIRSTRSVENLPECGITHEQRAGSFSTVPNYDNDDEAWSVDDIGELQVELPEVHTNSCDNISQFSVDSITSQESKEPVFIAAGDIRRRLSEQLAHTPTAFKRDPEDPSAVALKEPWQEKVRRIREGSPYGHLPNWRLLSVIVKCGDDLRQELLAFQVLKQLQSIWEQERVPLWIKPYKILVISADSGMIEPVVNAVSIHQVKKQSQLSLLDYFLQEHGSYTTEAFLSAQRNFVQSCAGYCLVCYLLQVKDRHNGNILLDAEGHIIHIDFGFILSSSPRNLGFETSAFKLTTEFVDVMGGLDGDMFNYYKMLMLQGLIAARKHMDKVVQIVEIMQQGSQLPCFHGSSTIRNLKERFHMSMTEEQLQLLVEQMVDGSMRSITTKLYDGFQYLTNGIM

[5] = biological target: T1, Inhibitor of nuclear factor kappa-B kinase subunit beta (Homo sapiens) (UniProt O14920); test: Selectivity interaction (KinomeScan (DiscoverX)) EUB0000595a IKBKB; conditions: at 10 µM
T1 sequence (whole entry): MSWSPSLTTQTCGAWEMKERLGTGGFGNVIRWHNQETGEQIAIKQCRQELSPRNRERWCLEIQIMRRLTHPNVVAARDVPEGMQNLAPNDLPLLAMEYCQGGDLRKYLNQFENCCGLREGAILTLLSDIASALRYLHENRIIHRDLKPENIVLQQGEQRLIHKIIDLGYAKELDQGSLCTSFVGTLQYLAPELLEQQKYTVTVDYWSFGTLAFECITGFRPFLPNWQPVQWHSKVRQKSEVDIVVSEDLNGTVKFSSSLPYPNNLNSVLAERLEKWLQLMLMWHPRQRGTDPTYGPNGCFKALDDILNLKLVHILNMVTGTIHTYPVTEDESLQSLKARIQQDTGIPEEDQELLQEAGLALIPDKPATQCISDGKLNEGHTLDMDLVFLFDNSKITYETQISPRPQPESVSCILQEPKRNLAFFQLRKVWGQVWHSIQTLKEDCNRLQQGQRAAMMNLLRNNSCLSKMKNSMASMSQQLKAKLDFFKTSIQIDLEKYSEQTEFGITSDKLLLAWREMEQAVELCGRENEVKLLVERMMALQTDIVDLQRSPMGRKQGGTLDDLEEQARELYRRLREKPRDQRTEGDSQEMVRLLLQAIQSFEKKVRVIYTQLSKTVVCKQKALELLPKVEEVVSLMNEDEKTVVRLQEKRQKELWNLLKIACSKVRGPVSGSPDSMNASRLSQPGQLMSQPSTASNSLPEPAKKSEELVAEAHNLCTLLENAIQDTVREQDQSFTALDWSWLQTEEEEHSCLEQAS

[6] = biological target: T2, Cyclin-dependent kinase 11A (Homo sapiens) (UniProt Q9UQ88); test: Selectivity interaction (KinomeScan (DiscoverX)) EUB0000595a CDK11A; conditions: at 10 µM
T2 sequence (whole entry): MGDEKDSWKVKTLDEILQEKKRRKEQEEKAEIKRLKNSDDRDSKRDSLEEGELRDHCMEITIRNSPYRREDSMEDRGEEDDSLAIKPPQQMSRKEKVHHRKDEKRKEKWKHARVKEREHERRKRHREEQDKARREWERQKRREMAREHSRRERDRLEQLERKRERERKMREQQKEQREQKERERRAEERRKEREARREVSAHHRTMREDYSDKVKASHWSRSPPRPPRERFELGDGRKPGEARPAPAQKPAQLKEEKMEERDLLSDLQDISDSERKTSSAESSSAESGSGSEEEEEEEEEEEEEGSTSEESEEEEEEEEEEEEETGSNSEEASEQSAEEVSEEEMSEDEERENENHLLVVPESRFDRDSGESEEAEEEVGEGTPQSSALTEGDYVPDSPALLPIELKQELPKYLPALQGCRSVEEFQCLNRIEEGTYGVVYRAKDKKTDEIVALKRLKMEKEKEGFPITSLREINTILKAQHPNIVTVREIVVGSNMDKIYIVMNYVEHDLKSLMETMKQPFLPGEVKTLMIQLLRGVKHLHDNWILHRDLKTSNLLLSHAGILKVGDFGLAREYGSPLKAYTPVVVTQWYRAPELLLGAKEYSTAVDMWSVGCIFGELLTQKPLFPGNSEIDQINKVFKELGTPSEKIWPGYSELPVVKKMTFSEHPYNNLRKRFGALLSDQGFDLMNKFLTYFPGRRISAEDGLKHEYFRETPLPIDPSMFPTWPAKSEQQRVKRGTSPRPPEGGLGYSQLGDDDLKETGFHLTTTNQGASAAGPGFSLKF

[7] = biological target: RAC-gamma serine/threonine-protein kinase (Homo sapiens, UniProt Q9Y243); test: Selectivity interaction (KinomeScan (DiscoverX)) EUB0001049a AKT3; conditions: at 1 µM
[8] = biological target: Non-receptor tyrosine-protein kinase TYK2 (Homo sapiens, UniProt P29597); test: Selectivity interaction (Ambit KINOMEscan and KiNATiv profiling in Jurkat cells) EUB0000090b TYK2; assay type: cell-based; conditions: at 1 µM
Non-receptor tyrosine-protein kinase TYK2, sequence (P29597 whole entry): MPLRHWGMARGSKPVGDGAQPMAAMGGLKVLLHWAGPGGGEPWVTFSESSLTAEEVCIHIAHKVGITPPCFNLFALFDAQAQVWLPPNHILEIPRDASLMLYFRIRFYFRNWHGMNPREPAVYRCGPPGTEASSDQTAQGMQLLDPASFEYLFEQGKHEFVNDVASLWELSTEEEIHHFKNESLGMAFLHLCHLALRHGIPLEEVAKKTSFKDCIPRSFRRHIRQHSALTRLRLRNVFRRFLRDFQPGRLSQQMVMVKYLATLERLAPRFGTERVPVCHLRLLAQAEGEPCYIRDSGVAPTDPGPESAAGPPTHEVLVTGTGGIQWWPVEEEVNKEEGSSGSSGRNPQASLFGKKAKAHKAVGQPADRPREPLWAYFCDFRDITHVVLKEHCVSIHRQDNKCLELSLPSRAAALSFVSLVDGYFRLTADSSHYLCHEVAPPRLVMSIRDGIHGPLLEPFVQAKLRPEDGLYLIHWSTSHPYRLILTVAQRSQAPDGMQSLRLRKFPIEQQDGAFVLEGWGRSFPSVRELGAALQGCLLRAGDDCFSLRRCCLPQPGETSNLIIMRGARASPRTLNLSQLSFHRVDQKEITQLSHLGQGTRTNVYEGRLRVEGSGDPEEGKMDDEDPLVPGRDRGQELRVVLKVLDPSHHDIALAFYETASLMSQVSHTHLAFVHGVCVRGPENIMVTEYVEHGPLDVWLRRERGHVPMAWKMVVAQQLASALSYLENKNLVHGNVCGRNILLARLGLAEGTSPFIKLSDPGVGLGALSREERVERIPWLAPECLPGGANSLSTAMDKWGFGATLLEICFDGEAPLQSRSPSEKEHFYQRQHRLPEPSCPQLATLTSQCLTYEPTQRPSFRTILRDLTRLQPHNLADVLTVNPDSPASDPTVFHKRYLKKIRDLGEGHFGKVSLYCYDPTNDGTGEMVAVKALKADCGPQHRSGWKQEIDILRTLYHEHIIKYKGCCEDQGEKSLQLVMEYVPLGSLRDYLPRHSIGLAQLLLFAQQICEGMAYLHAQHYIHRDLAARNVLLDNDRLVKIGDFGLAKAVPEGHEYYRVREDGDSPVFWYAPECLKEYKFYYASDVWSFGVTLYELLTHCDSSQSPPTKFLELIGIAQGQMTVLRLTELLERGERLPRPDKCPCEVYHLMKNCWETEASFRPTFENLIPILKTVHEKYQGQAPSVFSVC

[9] = biological target: Fibroblast growth factor receptor 4 (Homo sapiens, UniProt P22455); test: Selectivity interaction (KinomeScan (DiscoverX)) EUB0000092b FGFR4; conditions: at 10 µM
Fibroblast growth factor receptor 4, sequence (P22455 22-802 limits assumed): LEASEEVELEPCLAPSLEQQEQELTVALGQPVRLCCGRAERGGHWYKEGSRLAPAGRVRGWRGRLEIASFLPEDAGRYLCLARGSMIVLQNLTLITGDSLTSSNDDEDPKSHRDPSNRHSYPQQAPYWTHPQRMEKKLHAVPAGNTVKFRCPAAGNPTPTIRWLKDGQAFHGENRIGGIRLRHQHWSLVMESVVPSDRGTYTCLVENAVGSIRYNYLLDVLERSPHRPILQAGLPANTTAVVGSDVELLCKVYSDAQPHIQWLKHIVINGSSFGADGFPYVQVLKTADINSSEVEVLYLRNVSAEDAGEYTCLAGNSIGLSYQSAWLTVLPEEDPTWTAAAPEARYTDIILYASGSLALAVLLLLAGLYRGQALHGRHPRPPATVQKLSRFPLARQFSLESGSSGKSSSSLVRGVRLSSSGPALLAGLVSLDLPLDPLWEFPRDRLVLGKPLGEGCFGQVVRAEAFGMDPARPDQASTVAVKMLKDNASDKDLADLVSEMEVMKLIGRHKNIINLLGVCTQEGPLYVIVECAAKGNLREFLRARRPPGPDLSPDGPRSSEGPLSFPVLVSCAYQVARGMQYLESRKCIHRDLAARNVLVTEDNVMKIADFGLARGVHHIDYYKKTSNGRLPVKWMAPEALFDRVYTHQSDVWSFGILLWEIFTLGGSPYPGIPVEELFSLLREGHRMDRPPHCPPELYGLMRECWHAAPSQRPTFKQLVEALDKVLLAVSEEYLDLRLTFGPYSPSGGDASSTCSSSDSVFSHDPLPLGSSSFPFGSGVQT

[10] = biological target: T3, Uncharacterized serine/threonine-protein kinase SBK3 (Homo sapiens) (UniProt P0C264); test: Selectivity interaction (KinomeScan (DiscoverX)) EUB0000092b SBK3; conditions: at 10 µM
T3 sequence (whole entry): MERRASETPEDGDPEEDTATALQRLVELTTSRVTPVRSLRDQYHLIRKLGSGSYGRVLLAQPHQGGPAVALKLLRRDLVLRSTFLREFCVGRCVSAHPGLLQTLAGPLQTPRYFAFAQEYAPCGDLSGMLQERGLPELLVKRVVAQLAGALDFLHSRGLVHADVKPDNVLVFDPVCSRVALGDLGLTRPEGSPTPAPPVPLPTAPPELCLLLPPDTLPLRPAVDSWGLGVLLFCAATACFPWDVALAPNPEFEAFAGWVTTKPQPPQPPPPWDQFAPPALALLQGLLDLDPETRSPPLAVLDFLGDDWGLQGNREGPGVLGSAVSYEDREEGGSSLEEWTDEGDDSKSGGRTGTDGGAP

[11] = biological target: Wee1-like protein kinase 2 (Homo sapiens) (UniProt P0C1S8); conditions: at 10 µM
[12] = biological target: T4, Myosin light chain kinase family member 4 (Homo sapiens) (UniProt Q86YV6); test: Selectivity interaction (KinomeScan (DiscoverX)) EUB0001619a MYLK4; conditions: at 1 µM
T4 sequence (whole entry): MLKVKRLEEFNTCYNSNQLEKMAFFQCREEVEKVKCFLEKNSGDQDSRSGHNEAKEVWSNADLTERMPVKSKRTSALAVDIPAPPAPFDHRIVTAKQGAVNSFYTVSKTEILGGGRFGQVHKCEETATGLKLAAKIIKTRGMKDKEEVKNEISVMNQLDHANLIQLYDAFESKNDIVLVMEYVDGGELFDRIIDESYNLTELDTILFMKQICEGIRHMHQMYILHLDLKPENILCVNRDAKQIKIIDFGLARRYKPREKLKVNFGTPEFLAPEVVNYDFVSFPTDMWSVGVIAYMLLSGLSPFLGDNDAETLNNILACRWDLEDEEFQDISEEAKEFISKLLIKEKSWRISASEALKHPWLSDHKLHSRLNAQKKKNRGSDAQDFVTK

Proto-oncogene tyrosine-protein kinase Src, sequence (P12931 2-536 limits assumed): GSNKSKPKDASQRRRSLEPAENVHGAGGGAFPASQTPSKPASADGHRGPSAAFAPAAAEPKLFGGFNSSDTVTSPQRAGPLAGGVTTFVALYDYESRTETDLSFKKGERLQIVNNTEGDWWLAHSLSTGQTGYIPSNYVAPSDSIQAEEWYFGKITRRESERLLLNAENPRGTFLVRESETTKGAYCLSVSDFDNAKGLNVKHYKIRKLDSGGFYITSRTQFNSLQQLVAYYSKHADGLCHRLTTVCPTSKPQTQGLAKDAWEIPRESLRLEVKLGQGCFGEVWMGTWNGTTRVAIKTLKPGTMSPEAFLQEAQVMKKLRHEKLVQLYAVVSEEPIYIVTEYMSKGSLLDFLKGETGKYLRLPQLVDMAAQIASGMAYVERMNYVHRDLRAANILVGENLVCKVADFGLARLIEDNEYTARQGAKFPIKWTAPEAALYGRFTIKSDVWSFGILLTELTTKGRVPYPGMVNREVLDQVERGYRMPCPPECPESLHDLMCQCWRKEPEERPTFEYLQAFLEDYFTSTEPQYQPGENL
Protein polybromo-1 (Homo sapiens), sequence (Q86U86 whole entry): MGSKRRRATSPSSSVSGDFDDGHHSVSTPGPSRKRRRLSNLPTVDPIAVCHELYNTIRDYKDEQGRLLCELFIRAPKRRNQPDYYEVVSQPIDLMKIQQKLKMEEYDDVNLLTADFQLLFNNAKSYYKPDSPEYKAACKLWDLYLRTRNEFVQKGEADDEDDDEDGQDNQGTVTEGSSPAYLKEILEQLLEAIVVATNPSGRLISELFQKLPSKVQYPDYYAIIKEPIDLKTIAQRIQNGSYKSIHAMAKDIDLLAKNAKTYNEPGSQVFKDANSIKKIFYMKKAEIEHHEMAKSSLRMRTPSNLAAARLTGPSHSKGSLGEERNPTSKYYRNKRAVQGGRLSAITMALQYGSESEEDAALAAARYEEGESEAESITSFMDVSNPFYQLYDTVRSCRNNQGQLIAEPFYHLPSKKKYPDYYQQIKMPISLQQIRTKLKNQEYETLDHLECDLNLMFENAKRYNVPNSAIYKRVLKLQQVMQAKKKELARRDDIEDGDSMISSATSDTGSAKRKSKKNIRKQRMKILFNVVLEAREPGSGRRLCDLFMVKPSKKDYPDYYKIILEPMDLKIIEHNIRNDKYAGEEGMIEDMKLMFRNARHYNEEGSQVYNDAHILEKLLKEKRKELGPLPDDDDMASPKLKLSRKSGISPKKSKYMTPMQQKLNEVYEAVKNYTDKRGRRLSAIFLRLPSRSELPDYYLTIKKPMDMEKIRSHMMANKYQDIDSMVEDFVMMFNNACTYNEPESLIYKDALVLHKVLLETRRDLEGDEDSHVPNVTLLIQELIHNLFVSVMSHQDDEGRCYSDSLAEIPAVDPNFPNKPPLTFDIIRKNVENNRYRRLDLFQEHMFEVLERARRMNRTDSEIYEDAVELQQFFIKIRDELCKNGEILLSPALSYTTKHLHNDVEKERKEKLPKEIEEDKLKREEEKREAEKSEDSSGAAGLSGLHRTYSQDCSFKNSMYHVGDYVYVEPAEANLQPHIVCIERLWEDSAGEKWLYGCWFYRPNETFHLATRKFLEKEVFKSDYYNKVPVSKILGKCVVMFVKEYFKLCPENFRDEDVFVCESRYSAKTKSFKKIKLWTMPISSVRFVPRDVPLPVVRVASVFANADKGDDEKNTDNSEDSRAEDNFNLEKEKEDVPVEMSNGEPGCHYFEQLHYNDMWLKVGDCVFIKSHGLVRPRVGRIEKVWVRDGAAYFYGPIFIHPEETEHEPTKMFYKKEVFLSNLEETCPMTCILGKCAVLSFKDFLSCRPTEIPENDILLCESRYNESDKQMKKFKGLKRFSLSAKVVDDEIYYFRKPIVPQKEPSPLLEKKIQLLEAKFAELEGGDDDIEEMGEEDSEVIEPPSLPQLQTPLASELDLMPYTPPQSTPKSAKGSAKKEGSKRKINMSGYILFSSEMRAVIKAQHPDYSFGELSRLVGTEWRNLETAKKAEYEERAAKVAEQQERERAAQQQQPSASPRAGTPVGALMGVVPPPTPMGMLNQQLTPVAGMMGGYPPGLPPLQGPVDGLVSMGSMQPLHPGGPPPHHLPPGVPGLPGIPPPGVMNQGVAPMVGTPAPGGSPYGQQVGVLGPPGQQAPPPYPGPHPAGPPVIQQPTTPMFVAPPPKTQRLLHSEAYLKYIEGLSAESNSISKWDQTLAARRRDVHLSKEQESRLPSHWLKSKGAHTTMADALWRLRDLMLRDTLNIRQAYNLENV

dTM [1]: < 2 K
SMILES: CN(C)CCCOc1ccc(-c2cc(NCCCn3cccn3)nc(S(C)(=O)=O)n2)cc1

% of inhibition [2]: 6%
SMILES: CN1Cc2nccc(-c3cn(C)nc3-c3ccc(F)cc3)c2C1=O

% of inhibition [3]: -0.518%
SMILES: CC[C@@H]1[C@H](F)C(=O)N[C@@H]1COc1nccc2cc(C(N)=O)c(OC)cc12 [ZIMLOVISERTIB]

SMILES: COCC(=O)NC/C=C/c1ccc2ncnc(Nc3ccc(Oc4ccc(C)nc4)c(C)c3)c2c1 [CP-724714]
% of control [4]: 100%
% of control [5]: 100%
% of control [6]: 0.5%

SMILES: COc1cc(Nc2nc(C)cc(-c3cnn4nc(OC)ccc34)n2)cc(C(F)(F)F)c1
% of control [7]: 96%

SMILES: CN(C)C/C=C/C(=O)Nc1ccc(C(=O)N2CCCC(Nc3ncc(Cl)c(-c4c[nH]c5ccccc45)n3)C2)cc1 (configuration not stated)
% of control [8]: 94%

SMILES: CCC(=O)N1CCN(c2ccc(-n3c(=O)ccc4cnc5ccc(-c6cnc7ccccc7c6)cc5c43)cc2C(F)(F)F)CC1
% of control [9]: 21%
% of control [10]: 94%

SMILES: Cc1cc([C@@H](C)Nc2ccccc2C(=O)O)c2nc(N3CCOCC3)cc(=O)n2c1 [AZD-6482]
% of control [11]: 100%

SMILES: N#Cc1cccc(-c2c[nH]c3ncnc(N4CCOCC4)c23)c1
% of control [12]: 100%
